Reference: patent US20230192705A1, “SHP2 INHIBITORS, COMPOSITIONS AND USES THEREOF” (Betta Pharmaceuticals Co., Ltd, priority 2020, published 2023)

Target: T1, hERG channel (Homo sapiens, UniProt Q12809)
T1 construct: expressed in transfected cells; host or cells: HEK-293
Experiment: Patch clamp assay to test the effect of compound on hERG channel
Format: cell-based
Conditions: manual patch clamp, HEK 293 cells expressed with hERG, concentration for half maximum effect
Description: 10 mL extracellular solution was used to dilute the stock solution, making the final concentrations of test compound were 0.3 μM, 1 μM, 3 μM, 10 μM and 30 μM.
The solubility of compound was visually observed.
The cell line was derived from HEK-293 cells, and grown in a humidified environment at 37° C. under 5% CO2, using the media formulation below. The cell line should not be allowed to exceed 80% confluence within the culture vessel to prevent contact inhibition causing senescence and should thus be passaged every 3/4 days using a seeding density of 2*10^6 cells per T175 flask. Cell lines were be pre-washed with phosphate buffered saline before harvesting with Trypsin/EDTA and seeded into new flasks.
HEK 293 cells expressed with hERG were plated on cover slips overnight with the cell density less than 50% of confluence. Cells used for electrophysiological study were transferred to a small cell bath (1 mL) mounted on the stage of an inverted microscope (Diaphot, Nikon) and were perfused with external solution containing (in mM) 130 NaCl, 4 KCl, 1.8 CaCl2), 1 MgCl2, 10 glucose and 10 HEPES (pH 7.4 with NaOH), the perfusion rate was 4 mL/min. The internal pipette solution contained (in mM) 130 KCl, 1 MgCl2, 5 ethylene glycol-bis(baminoethyl ether)-N,N,N8,N8-tetraacetic acid, 5 MgATP and 10 HEPES (pH 7.2 with KOH). An HEKA EPC-10 patch-clamp amplifier and PATCHMASTER acquisition program were used to record membrane currents (HEKA Instruments IncD-67466 Lambrecht/Pfalz Germany). All experiments were performed at room temperature (22-23° C.).
The Model P-97 micropipette puller (Sutter Instrument Company, One Digital Drive, Novato, Calif. 94949) was used to pull glass patch pipettes (BF150-86-10) in all experiments.
The experiments were initiated with a 2 min vehicle control period after forming a whole cell configuration with less 5% run-down in 5 min and the tail currents in the report were at least greater than 500 pA. After a 2 min vehicle control period, the perfusion was switched to the reservoir containing the compound at the first concentration. The same procedure was repeated 3-5 times so that each cell was exposed to 4-6 escalating concentrations of compound. The time courses for block and unblock of hERG during compounds exposure and washout were continuously recorded.
The peak tail of hERG was generated by applying 2-sec depolarizing every 12 sec steps from a holding potential of −80 mV, the peak of tail currents were measured at a 5-sec repolarizing pulse at −50 mV.
hERG peak tail currents were directly measured from a 5 sec repolarization pulse at −50 mV. The fraction of control current was plotted as a function of logarithm of compound concentration. To determine the concentration of compound for halfmaximum effect, the concentration-response curve was fitted by Hill equation as shown follow.
where Y is the observed value, Bottom is the lowest observed value (0), Top is the highest observed value (1), and the Hillcoefficient gives the largest absolute value of the slope of the curve.
Data were analyzed by a combination of PATCHMASTER ((HEKA Instruments IncD-67466 Lambrecht/Pfalz Germany) and Origin (OriginLab Corporation, Northampton, Mass.) software programs.
Data were expressed as mean±SEM.

T1 sequence (Q12809 whole entry): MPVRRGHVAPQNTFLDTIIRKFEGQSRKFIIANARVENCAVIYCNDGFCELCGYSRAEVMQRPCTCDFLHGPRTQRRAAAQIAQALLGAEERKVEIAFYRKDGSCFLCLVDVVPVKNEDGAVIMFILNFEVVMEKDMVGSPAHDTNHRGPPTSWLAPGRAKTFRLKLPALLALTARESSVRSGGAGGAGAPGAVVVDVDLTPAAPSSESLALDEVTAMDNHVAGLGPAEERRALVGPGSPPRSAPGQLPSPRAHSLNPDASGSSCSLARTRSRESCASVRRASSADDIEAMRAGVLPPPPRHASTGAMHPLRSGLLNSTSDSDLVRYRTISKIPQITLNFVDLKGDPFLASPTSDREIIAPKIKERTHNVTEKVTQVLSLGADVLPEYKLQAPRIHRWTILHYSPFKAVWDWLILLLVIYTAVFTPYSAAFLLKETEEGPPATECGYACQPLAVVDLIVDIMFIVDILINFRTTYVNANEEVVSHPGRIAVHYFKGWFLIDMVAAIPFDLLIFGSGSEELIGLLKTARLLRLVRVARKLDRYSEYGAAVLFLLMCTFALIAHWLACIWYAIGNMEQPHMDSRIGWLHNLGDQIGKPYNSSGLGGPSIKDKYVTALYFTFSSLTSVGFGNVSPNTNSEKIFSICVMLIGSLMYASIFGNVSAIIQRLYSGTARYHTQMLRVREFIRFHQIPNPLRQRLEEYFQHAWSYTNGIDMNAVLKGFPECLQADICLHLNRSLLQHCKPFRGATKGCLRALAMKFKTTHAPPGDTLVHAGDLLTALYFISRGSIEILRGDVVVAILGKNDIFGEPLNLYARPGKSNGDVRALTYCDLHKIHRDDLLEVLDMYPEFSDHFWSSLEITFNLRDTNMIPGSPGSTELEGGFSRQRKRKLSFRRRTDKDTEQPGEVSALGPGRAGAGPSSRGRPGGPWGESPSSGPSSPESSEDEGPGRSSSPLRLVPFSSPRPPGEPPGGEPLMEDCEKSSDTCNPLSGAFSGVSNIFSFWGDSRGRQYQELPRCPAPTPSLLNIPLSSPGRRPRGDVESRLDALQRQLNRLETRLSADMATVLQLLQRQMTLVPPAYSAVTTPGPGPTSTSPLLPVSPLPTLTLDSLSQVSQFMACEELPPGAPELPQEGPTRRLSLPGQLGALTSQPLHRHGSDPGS

SMILES	IC50 [µM]
Cn1c(N2CCC3(CC2)Cc2ccccc2[C@H]3N)nc2[nH]nc(C3(c4ccccc4)CC3)c2c1=O [Example 1]	1.76
N[C@@H]1c2ccccc2CC12CCN(c1nc3[nH]nc(C4(c5ccccc5)CC4(F)F)c3c(=O)[nH]1)CC2 (stereo partly drawn) [Example 9, 6-((S)-1-amino-1,3-dihydrospiro[indene-2,4′-piperidin]-1′-yl)-3-(2,2-difluoro-1-phenylcyclopropyl)-1,5-dihydro-4H-pyrazolo[3,4-d]pyrimidin-4-one]	10.4
N[C@@H]1c2ccccc2CC12CCN(c1nc3[nH]nc(C4(c5cccs5)CC4)c3c(=O)[nH]1)CC2 [Example 24, (S)-6-(1-amino-1,3-dihydrospiro[indene-2,4′-piperidin]-1′-yl)-3-(1-(thiophen-2-yl)cyclopropyl)-1,5-dihydro-4H-pyrazolo[3,4-d]pyrimidin-4-one]	14.8
N[C@@H]1c2ccccc2CC12CCN(c1nc3[nH]nc(C4(c5ccccc5)CC4)c3c(=O)[nH]1)CC2 [Example 33]	9.5
N[C@@H]1c2ccccc2CC12CCN(c1nc3[nH]nc(C4(c5ccc6c(c5)OCO6)CC4)c3c(=O)[nH]1)CC2 [Example 34, (S)-6-(1-amino-1,3-dihydrospiro[indene-2,4′-piperidin]-1′-yl)-3-(1-(benzo[d][1,3]dioxol-5-yl)cyclopropyl)-1,5-dihydro-4H-pyrazolo[3,4-d]pyrimidin-4-one]	6.9
N[C@@H]1c2ccccc2CC12CCN(c1nc3[nH]nc(C4(c5ccccc5)COC4)c3c(=O)[nH]1)CC2 [Example 96, (S)-6-(1-amino-1,3-dihydrospiro[indene-2,4′-piperidin]-1′-yl)-3-(3-phenyloxetan-3-yl)-1,5-dihydro-4H-pyrazolo[3,4-d]pyrimidin-4-one]	> 30
Nc1ccc(C2(c3n[nH]c4nc(N5CCC6(CC5)Cc5ccccc5[C@H]6N)[nH]c(=O)c34)CC2)cc1 [Example 230, (S)-6-(1-amino-1,3-dihydrospiro[indene-2,4′-piperidin]-1′-yl)-3-(1-(4-aminophenyl)cyclopropyl)-1,5-dihydro-4H-pyrazolo[3,4-d]pyrimidin-4-one]	> 30
N[C@@H]1c2ccccc2CC12CCN(c1nc3[nH]nc(C4(c5ccc(O)cc5)CC4)c3c(=O)[nH]1)CC2 [Example 234, (S)-6-(1-amino-1,3-dihydrospiro[indene-2,4′-piperidin]-1′-yl)-3-(1-(4-hydroxyphenyl)cyclopropyl)-1,5-dihydro-4H-pyrazolo[3,4-d]pyrimidin-4-one]	> 30
N#Cc1ccc(C2(c3n[nH]c4nc(N5CCC6(CC5)Cc5ccccc5[C@H]6N)[nH]c(=O)c34)CC2)cc1 [Example 237, (S)-4-(1-(6-(1-amino-1,3-dihydrospiro[indene-2,4′-piperidin]-1′-yl)-4-oxo-4,5-dihydro-1H-pyrazolo[3,4-d]pyrimidin-3-yl)cyclopropyl)benzonitrile]	7.9
N[C@@H]1c2ccccc2CC12CCN(c1nc3[nH]nc(C4(c5csnn5)CC4)c3c(=O)[nH]1)CC2 [Example 240, (S)-3-(1-(1,2,3-thiadiazol-4-yl)cyclopropyl)-6-(1-amino-1,3-dihydrospiro[indene-2,4′-piperidin]-1′-yl)-1,5-dihydro-4H-pyrazolo[3,4-d]pyrimidin-4-one]	17.1
